{"source": "patent US5508293A", "about": "“Pyridinecarboxyimidamide compounds and the use thereof” (Kirin Beer Kabushiki Kaisha, priority 1992, dated 1996)", "key": {"[1]": {"system": "rat aorta", "assay": "Vasodilating effect in a rat aorta (relaxation of KCl-induced contraction)", "set-up": "species or system rat (male Wistar rat)", "conditions": "isolated rat thoracic aorta, 40 mM KCl; read-out: IC50 (concentration for inhibiting 50% of the tension induced by KCl)", "description": "Physiological effect of the compound of the present invention was tested by the method with use of an isolated rat aorta.\nThoracic aorta was isolated from a male Wistar rat (body weight, 250-350 g) exsanguinated to death for obtaining ring preparations having a width of 3 mm. The preparations were suspended into an organ bath filled with the Krebs-Ringer solution through which a mixed gas of 95% O2 and 5% CO2 had been aerated at 37° C. A resting tension of 1 g was applied to the preparation. After the tension in the preparation was stabilized, the solution in the organ bath was exchanged with an equimolar solution containing 40 mM KC1 to increase the tension of the preparation. When the tension induced by KCl become stable, the test compound was cumulatively added to the organ bath to relax the preparation. Relaxation response was expressed as percentage inhibition of KCl-induced contraction, and the IC50 value (concentration for inhibiting 50% of the tension induced by KCl) was calculated from the average concentration-response curve by the Probit method."}, "[2]": {"system": "spontaneously hypertensive rats (SHR), systolic blood pressure", "assay": "Antihypertensive effects on conscious SHR (oral), Compound Nos. 18 and 19", "format": "in vivo, rat (male spontaneously hypertensive rats", "description": "Antihypertensive effects of- 5-amino-N-cyano-N'-(2-nitroxyethyl)-3-pyridinecarboximidamide (N-cyano-N'-(2-nitroxyethyl)-5-(3-aminopyridine)carboximidamide; Compound No. 18) and N-cyano-5-ethylamino-N'-(2-nitroxyethyl)-3-pyridinecarboximidamide (N-cyano-N'-(2-nitroxyethyl)-5-[3-(N-ethylaminopyridine)]carboximidamide; Compound No. 19) were assessed by comparison with those of the methanesulfonate salt of N-cyano-N'-(2-nitroxyethyl)-3-pyridinecarboximidamide (compound described in Japanese Patent Laid-Open Publication No. 163061/1991) as a reference compound which is thought to be a well-known compound most similar to the compound of the present invention.\nSystolic blood pressure (SBP) was measured with the tail cuff method.\nEach of the compound Nos. 18 and 19 was dissolved in an equivalent mixture of polyethylene glycol 200 and physiological saline, and the reference compound was dissolved in physiological saline. The compounds were administered orally with the aid of an oral probe. SBP was measured before administration and 1, 2, 4, 6, 8, 12 and 24 hours after administration of the compound. The results were expressed as the percentage change in SBP observed before administration."}, "[3]": {"system": "coronary blood flow (circumflex branch of the left coronary artery), beagles", "assay": "Coronary dilating effect on beagles (coronary blood flow, anesthetized dog)", "format": "in vivo", "conditions": "i.v., 10 Mg/Kg", "description": "Coronary dilating effects of 5-amino-N-cyano-N'-(2-nitroxyethyl)-3-pyridinecarboximidamide (Compound No. 18) of the present invention was assessed by comparison with those of N-cyano-N'-(2-nitroxyethyl)-3-pyridinecarboximidamide methanesulfonic acid (compound described in Japanese Patent Laid-Open Publication No. 163061/1991) which is thought to be a well-known compound most similar to the compound of the present invention.\nA dog (body weight, 8.3 kg) was anesthetized with 30 mg/kg of pentobarbital sodium intravenously. Respiration was maintained with room air through a cuffed endotracheal tube. The drug was administered through the femoral vein, and the coronary blood flow was measured by a probe attached to the circumflex branch of the left coronary artery."}, "[4]": {"assay": "Acute toxicity, oral, Compound No. 18", "conditions": "rat, in vivo, male SD rats (5 weeks old)", "description": "Acute toxicity of 5-amino-N-cyano-N'-(2-nitroxyethyl)-3-pyridinecarboximidamide (Compound No. 18) of the present invention on oral administration was examined with male SD rats (5 weeks old). As a result, LD50 was about 600 mg/kg."}}}
{"smiles": "N#CNC(=NCCO[N+](=O)[O-])c1cncc(N)c1", "note": "[Compound No. 18, 5-amino-N-cyano-N'-(2-nitroxyethyl)-3-pyridinecarboximidamide]", "values": [{"measurement": "IC50", "setting": "[1]", "value": 22, "unit": "µM"}, {"measurement": "decrease in blood pressure / antihypertensive effect", "setting": "[2]; 3.0 mg/kg oral", "value": "decrease in blood pressure was observed"}, {"measurement": "duration of the antihypertensive effect", "setting": "[2]; 3.0 mg/kg oral", "value": "≥ 12", "unit": "h"}, {"measurement": "percent change in SBP observed before administration of the compound", "setting": "[2]; 3.0 mg/kg oral, 1 hour after administration", "value": -56.9, "unit": "%"}, {"measurement": "percent change in SBP observed before administration of the compound", "setting": "[2]; 3.0 mg/kg oral, 2 hour after administration", "value": -49.2, "unit": "%"}, {"measurement": "percent change in SBP observed before administration of the compound", "setting": "[2]; 3.0 mg/kg oral, 4 hour after administration", "value": -42.6, "unit": "%"}, {"measurement": "percent change in SBP observed before administration of the compound", "setting": "[2]; 3.0 mg/kg oral, 6 hour after administration", "value": -17.9, "unit": "%"}, {"measurement": "percent change in SBP observed before administration of the compound", "setting": "[2]; 3.0 mg/kg oral, 8 hour after administration", "value": -20.5, "unit": "%"}, {"measurement": "percent change in SBP observed before administration of the compound", "setting": "[2]; 3.0 mg/kg oral, 12 hour after administration", "value": -22.2, "unit": "%"}, {"measurement": "percent change in SBP observed before administration of the compound", "setting": "[2]; 3.0 mg/kg oral, 24 hour after administration", "value": -3.7, "unit": "%"}, {"measurement": "antihypertensive activity or coronary vasodilating effect determined with the passage of time", "setting": "[2]; summary statement", "value": "remarkably potent and sustainable"}, {"measurement": "increase of coronary blood flow", "setting": "[3]", "value": "increase of coronary blood flow was observed"}, {"measurement": "time for which the increase of coronary blood flow was retained", "setting": "[3]", "value": "≥ 15", "unit": "min"}, {"measurement": "percent change of coronary blood flow as compared with the blood flow before administration", "setting": "[3]; 1 min after dosage", "value": 200.0, "unit": "%"}, {"measurement": "percent change of coronary blood flow as compared with the blood flow before administration", "setting": "[3]; 3 min after dosage", "value": 123.8, "unit": "%"}, {"measurement": "percent change of coronary blood flow as compared with the blood flow before administration", "setting": "[3]; 5 min after dosage", "value": 71.4, "unit": "%"}, {"measurement": "percent change of coronary blood flow as compared with the blood flow before administration", "setting": "[3]; 10 min after dosage", "value": 19.0, "unit": "%"}, {"measurement": "percent change of coronary blood flow as compared with the blood flow before administration", "setting": "[3]; 15 min after dosage", "value": 19.0, "unit": "%"}, {"measurement": "percent change of coronary blood flow as compared with the blood flow before administration", "setting": "[3]; 20 min after dosage", "value": 0.0, "unit": "%"}, {"measurement": "LD50", "setting": "[4]", "value": "~600", "unit": "mg/kg"}]}
